Source: article PMC10488055, “Investigation of Potential cGMP-Specific PDE V and Aminopeptidase N Inhibitors of Allium ampeloprasum L. and Its Bioactive Components: Kinetic and Molecular Docking Studies” (International Journal of Molecular Sciences, 2023)
Where two headings read alike, the source gives them in different places.

Key:
Type in all cases: biochemical
[1] = target: T1, aminopeptidase N (APN) (Homo sapiens, UniProt P15144); assay: Aminopeptidase N (APN) enzyme activity assay with L-p-NA substrate; settings: for inhibition of APN in in vitro enzyme assay: at the highest concentration; for enzymatic activity of APN: treatment with 10 mM, without sample 0.38 U
T1 construct: purchased Sigma-Aldrich
T1 sequence (P15144 whole entry, species assumed): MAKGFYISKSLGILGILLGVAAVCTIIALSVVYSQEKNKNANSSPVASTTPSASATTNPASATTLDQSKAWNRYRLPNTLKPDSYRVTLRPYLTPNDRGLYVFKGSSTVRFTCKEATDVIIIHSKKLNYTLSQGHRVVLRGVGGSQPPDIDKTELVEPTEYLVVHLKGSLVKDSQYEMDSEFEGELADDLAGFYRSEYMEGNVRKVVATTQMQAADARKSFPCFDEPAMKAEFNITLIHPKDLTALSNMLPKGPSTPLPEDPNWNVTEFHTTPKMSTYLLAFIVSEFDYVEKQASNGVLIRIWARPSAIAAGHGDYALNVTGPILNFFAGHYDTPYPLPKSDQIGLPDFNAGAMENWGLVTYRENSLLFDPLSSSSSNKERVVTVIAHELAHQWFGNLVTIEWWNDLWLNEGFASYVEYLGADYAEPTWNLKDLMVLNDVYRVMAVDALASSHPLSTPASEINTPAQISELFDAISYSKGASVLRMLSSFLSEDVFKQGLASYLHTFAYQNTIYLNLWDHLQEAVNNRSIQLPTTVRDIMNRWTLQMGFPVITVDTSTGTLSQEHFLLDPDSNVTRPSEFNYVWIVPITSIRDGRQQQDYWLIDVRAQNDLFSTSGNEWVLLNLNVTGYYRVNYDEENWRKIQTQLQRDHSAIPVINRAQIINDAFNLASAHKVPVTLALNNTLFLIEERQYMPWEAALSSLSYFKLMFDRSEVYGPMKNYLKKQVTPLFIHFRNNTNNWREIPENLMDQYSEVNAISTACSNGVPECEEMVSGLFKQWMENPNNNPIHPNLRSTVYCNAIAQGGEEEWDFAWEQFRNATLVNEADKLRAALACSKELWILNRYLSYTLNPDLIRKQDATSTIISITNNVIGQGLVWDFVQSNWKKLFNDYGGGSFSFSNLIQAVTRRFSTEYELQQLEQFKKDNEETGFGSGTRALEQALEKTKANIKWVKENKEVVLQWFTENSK
Method: Figure 2 Effects of AAE and AAE-derived compounds on APN activity. […] The reaction was started by adding 20 μL enzyme solution (1 mU) and incubated for 60 min at 37 °C. The absorbance of samples were measured at 405 nm to determine the formation of p-nitroaniline. Each value is the mean ± SD of triplicate measurements. * p < 0.05 and ** p < 0.01, compared to each control group (Con). Con, control group treated enzyme only.
The activity of APN was determined according to Melzig et al.. Briefly, the enzyme substrate L-p-NA (2 mM) was dissolved in 50 mM N-(2-hydroxyethyl)piperazine-N’-2ethansulfonic acid (HEPES) buffer (pH 7.4) containing 154 mM NaCl. […] The reaction was started by adding 20 μL enzyme solution (approximately 1 mU in HEPES-buffer) and incubated for 60 min at 37 °C. The samples were measured spectrophotometrically at 405 nm to determine the formation of p-nitroanilmne. APN inhibitory activity (%) = ([Absorbance control without sample − Absorbance control with sample]/Absorbance control without sample) × 100

[2] = target: PDE5 (Homo sapiens, UniProt O76074); assay: Kinetic assay (Lineweaver–Burk) on PDE5;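 for Kcat: pure compound doses in mM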; set-up: Vmax / Kcat: unit of the concentration uncertain; settings: for inhibition type against PDE5: from changes of Km and 1/Vmax (Lineweaver–Burk), putative decision system [27]; for Kik/Kiv / Ki: PDE5; for Kik/Kiv: ratio according to Yang et al. [27]; for Vmax value of PDE5, fold of non-treated group: non-treated 1.039 mU/min = 1.0-fold
Method: Lineweaver–Burk plots were employed to analyze the inhibition of the target enzyme. These plots were represented as 1/velocity (1/V) versus 1/substrate concentration (1/[S]) in the presence or absence of each sample (non-treated (black circle), 10 μg or 1 mM (orange circle), 20 μg or 2 mM (silver circle), 50 μg or 5 mM (yellow circle), and 100 μg or 10 mM (blue circle)) as an inhibitor against PDE5.
(§1) These reactions were conducted in a total volume of 80 μL. by a previously described method. The Michaelis–Menten constant (Km) and maximal velocity (Vmax) were calculated using the x and y intercepts, respectively. […] Additionally, the Kik and Kiv inhibition constants were calculated using previously described methods.

[3] = target: T2, APN (Homo sapiens, UniProt P15144); assay: Kinetic assay (Lineweaver–Burk) on APN; settings: for inhibition type against APN: from Kik/Kiv ratio, new decision system [27]; for Vmax value of APN, fold of non-treated group: non-treated 0.316 mU/min = 1.0-fold
T2 construct: purchased Sigma-Aldrich
T2 sequence (P15144 whole entry, species assumed): as above
Method: Lineweaver–Burk plots were employed to analyze the inhibition of the target enzyme. These plots were represented as 1/velocity (1/V) versus 1/substrate concentration (1/(S)) in the presence or absence of each sample (non-treated (black circle), 10 μg or 1 mM (blue circle), 20 μg or 2 mM (green circle), 50 μg or 5 mM (orange circle), and 100 μg or 10 mM (purple circle)) as an inhibitor against APN.
as §1

[4] = target: cGMP-specific PDE V (PDE5) (Homo sapiens, UniProt O76074); assay: cGMP-specific PDE V (PDE5) enzyme activity assay with p-NPPPh substrate; settings: for reduction of PDE5 enzymatic activity: range over 1, 2, 5, and 10 mM
Method: Following the addition of 10 mM p-NPPPh, the reaction mixture was incubated at 37 °C for 10 min. After the incubation period, the concentration of liberated 4-nitrophenol was determined by measuring its absorbance values at a wavelength of 405 nm using a microplate reader. […] Con, control group treated enzyme only.
The specific substrate used for PDE5 was p-NPPPh, following a previously described method. The enzyme solution was prepared by adding 1 U of PDE5 to a volume of 10 μL in 40 mM Tris-HCl buffer at pH 7.4. The substrate solution (10 mM) was prepared by dissolving the substrate in Tris-HCl buffer at pH 7.4. […] Following the pretreatment, the reaction was initiated and allowed to continue for an additional 10 min at 37 °C upon the addition of 10 mM p-NPPPh in a total reaction volume of 80 μL. Following the incubation period, the absorbance of the mixture was measured at 405 nm using a microplate reader. The enzyme activity was quantified in units, where one unit corresponds to the amount of enzyme needed to hydrolyze 1 micromol of p-NPPPh. The inhibitory activity of PDE5 (%) was calculated by determining the residual activity (U). PDE5 inhibitory activity (%) = ([Residual unit control without sample − Residual unit control with sample]/Residual unit control without sample) × 100

[5] = PDE5 treated with compound 1 (unit uncertain)
[6] = PDE5 treated with compound 2 (unit uncertain)
[7] = PDE5 treated with compound 5 (unit uncertain)
[8] = PDE5 treated with compound 10 (unit uncertain)
[9] = APN treated with compound 10 mM
[10] = APN, calculated by method of ref 27, read-out: Kik
[11] = APN, calculated by method of ref 27, read-out: Kiv

For `O=c1c(O)c(-c2ccc(O)cc2)oc2cc(O)cc(O)c12` [KAE, kaempferol], the IC50 [1] was greater than 10 mM, the “inhibition of APN in in vitro enzyme assay” value (shortened to “inhibition of APN”) [1] was 29% and the “enzymatic activity of APN” value [1] was 0.27 ± 0.01 U. It also gave a Kcat [2, 5] of 5076 ± 98 k s^−1, a Vmax [2, 5] of 0.671 ± 0.013 mU/min and a Kcat [2, 6] of 4591 ± 76 k s^−1. The Vmax [2, 6] was 0.607 ± 0.010 mU/min, the Kcat [2, 7] was 2390 ± 121 k s^−1 and the Vmax [2, 7] was 0.316 ± 0.016 mU/min. The Kcat [2, 8] was 1228 ± 69 k s^−1, the Vmax [2, 8] was 0.162 ± 0.009 mU/min and the “inhibition type against PDE5” value [2] was “uncompetitive-type”. For the same molecule, the Kcat ([3]; APN treated with compound 1 mM) was 396.3 ± 7.5 s⁻¹, the Vmax ([3]; APN treated with compound 1 mM) was 0.319 ± 0.006 mU/min and the Kcat ([3]; APN treated with compound 2 mM) was 352.8 ± 7.4 s⁻¹. For the same molecule, the Vmax ([3]; APN treated with compound 2 mM) was 0.284 ± 0.006 mU/min, the Kcat ([3]; APN treated with compound 5 mM) was 308.0 ± 5.0 s⁻¹ and the Vmax ([3]; APN treated with compound 5 mM) was 0.248 ± 0.004 mU/min. For the same molecule, the Kcat [3, 9] was 268.5 ± 3.7 s⁻¹, the Vmax [3, 9] was 0.216 ± 0.003 mU/min and the Ki [3, 10] was 42.1 mM. The Ki [3, 11] was 21.7 mM, the Ki ([3]; APN, read-out: Ki) was 11.9 mM and the “inhibition type against APN” value [3] was “uncompetitive-type”.
In the case of `C=CCSSCC=C` [DADS, diallyl disulfide], the IC50 [1] is reported as greater than 10 mM, the “inhibition of APN” value [1] is reported as 11% and the “enzymatic activity of APN” value [1] is reported as 0.34 ± 0.02 U. The Kik/Kiv [2] was 16.0, the Kcat [2, 5] was 7253 ± 189 k s^−1 and the Vmax [2, 5] was 0.959 ± 0.025 mU/min. For the same molecule, the Kcat [2, 6] was 6625 ± 159 k s^−1, the Vmax [2, 6] was 0.876 ± 0.021 mU/min and the Kcat [2, 7] was 5905 ± 83 k s^−1. For the same molecule, the Vmax [2, 7] was 0.781 ± 0.011 mU/min, the Kcat [2, 8] was 4383 ± 76 k s^−1 and the Vmax [2, 8] was 0.580 ± 0.010 mU/min. For the same molecule, the “inhibition type against PDE5” value [2] was “noncompetitive-type”, the “Vmax value of PDE5, fold of non-treated group” value ([2]; highest concentration) was 0.56 fold and the Kcat ([3]; APN treated with compound 1 mM) was 394.8 ± 3.7 s⁻¹. It also gave a Vmax ([3]; APN treated with compound 1 mM) of 0.318 ± 0.003 mU/min, a Kcat ([3]; APN treated with compound 2 mM) of 379.5 ± 7.4 s⁻¹ and a Vmax ([3]; APN treated with compound 2 mM) of 0.306 ± 0.006 mU/min. The Kcat ([3]; APN treated with compound 5 mM) was 368.8 ± 6.2 s⁻¹, the Vmax ([3]; APN treated with compound 5 mM) was 0.297 ± 0.005 mU/min and the Kcat [3, 9] was 364.9 ± 5.0 s⁻¹. The Vmax [3, 9] was 0.294 ± 0.004 mU/min, the Ki ([3]; APN, read-out: Ki) was 65.7 mM and the “inhibition type against APN” value [3] was “uncompetitive-type”. The “Vmax value of APN, fold of non-treated group” value ([3]; highest concentration) was 0.93 fold.
In the case of `C[S@+]([O-])C[C@H](N)C(=O)O` [MT, methiin], the IC50 [4] is reported as 7.56 mM, the “reduction of PDE5 enzymatic activity” value [4] is reported as 24.83–53.90% and the “inhibition of APN” value [1] is reported as 32%. The “enzymatic activity of APN” value [1] was 0.26 ± 0.02 U, the Ki [2] was 21.5 mM and the Kik/Kiv [2] was 3.2. It also gave a Kcat [2, 5] of 6261 ± 189 k s^−1, a Vmax [2, 5] of 0.828 ± 0.025 mU/min and a Kcat [2, 6] of 5580 ± 159 k s^−1. For the same molecule, the Vmax [2, 6] was 0.738 ± 0.021 mU/min, the Kcat [2, 7] was 4007 ± 98 k s^−1 and the Vmax [2, 7] was 0.530 ± 0.013 mU/min. For the same molecule, the Kcat [2, 8] was 3673 ± 144 k s^−1, the Vmax [2, 8] was 0.486 ± 0.019 mU/min and the “inhibition type against PDE5” value [2] was “uncompetitive-type”. For the same molecule, the “Km value of PDE5, fold of non-treated” value ([2]; highest concentration) was 0.74 fold, the “Vmax value of PDE5, fold of non-treated group” value ([2]; highest concentration) was 0.47 fold and the Kcat ([3]; APN treated with compound 1 mM) was 367.0 ± 3.7 s⁻¹. The Vmax ([3]; APN treated with compound 1 mM) was 0.296 ± 0.003 mU/min, the Kcat ([3]; APN treated with compound 2 mM) was 310.6 ± 6.2 s⁻¹ and the Vmax ([3]; APN treated with compound 2 mM) was 0.250 ± 0.005 mU/min. The Kcat ([3]; APN treated with compound 5 mM) was 246.8 ± 3.7 s⁻¹, the Vmax ([3]; APN treated with compound 5 mM) was 0.199 ± 0.003 mU/min and the Kcat [3, 9] was 218.9 ± 2.5 s⁻¹. For the same molecule, the Vmax [3, 9] was 0.176 ± 0.002 mU/min, the Ki [3, 11] was 12.6 mM and the Ki ([3]; APN, read-out: Ki) was 13.4 mM. For the same molecule, the “inhibition type against APN” value [3] was “noncompetitive-type” and the “Vmax value of APN, fold of non-treated group” value ([3]; highest concentration) was 0.56 fold.
For `C=CCSSSCC=C` [DATS, diallyl trisulfide], the IC50 [4] was 9.49 mM, the “inhibition rate of PDE5” value ([4]; at the highest concentration (in vitro enzyme assay)) was 52% and the “reduction of PDE5 enzymatic activity” value [4] was 8.34–51.75%. The “inhibition of APN” value [1] was 19%, the “enzymatic activity of APN” value [1] was 0.31 ± 0.02 U and the Ki [2] was 7.53 mM. The Kik/Kiv [2] was 17.8, the Kcat [2, 5] was 7105 ± 197 k s^−1 and the Vmax [2, 5] was 0.940 ± 0.026 mU/min. The Kcat [2, 6] was 6757 ± 242 k s^−1, the Vmax [2, 6] was 0.894 ± 0.032 mU/min and the Kcat [2, 7] was 4955 ± 174 k s^−1. For the same molecule, the Vmax [2, 7] was 0.655 ± 0.023 mU/min, the Kcat [2, 8] was 3371 ± 144 k s^−1 and the Vmax [2, 8] was 0.446 ± 0.019 mU/min. The “inhibition type against PDE5” value [2] was “noncompetitive-type”, the “Vmax value of PDE5, fold of non-treated group” value ([2]; highest concentration) was 0.43 fold and the Kcat ([3]; APN treated with compound 1 mM) was 368.9 ± 7.4 s⁻¹. It also gave a Vmax ([3]; APN treated with compound 1 mM) of 0.297 ± 0.006 mU/min, a Kcat ([3]; APN treated with compound 2 mM) of 365.3 ± 6.2 s⁻¹ and a Vmax ([3]; APN treated with compound 2 mM) of 0.294 ± 0.005 mU/min. The Kcat ([3]; APN treated with compound 5 mM) was 309.2 ± 5.0 s⁻¹, the Vmax ([3]; APN treated with compound 5 mM) was 0.249 ± 0.004 mU/min and the Kcat [3, 9] was 285.9 ± 5.0 s⁻¹. For the same molecule, the Vmax [3, 9] was 0.230 ± 0.004 mU/min, the Ki [3, 10] was 68.5 mM and the Ki [3, 11] was 26.9 mM. The Kik/Kiv ([3]; APN, ratio according to Yang et al. [27]) was 2.5, the Ki ([3]; APN, read-out: Ki) was 18.7 mM and the “inhibition type against APN” value [3] was “mixed-type”. For the same molecule, the “Km value of APN, fold of non-treated” value ([3]; highest concentration) was 1.15 fold and the “Vmax value of APN, fold of non-treated group” value ([3]; highest concentration) was 0.73 fold.
